Earlier results, collected in patent US7922709B2, “Enhanced delivery of naked DNA to skin by non-invasive in vivo electroporation” (priority 1998, dated 2011).

For bleomycin, the “log P (partition coefficient between octanol and water)” value is given as “very negative”.
